From patent US20120108559A1, “RECEPTOR ACTIVATOR OF THE RANK RECEPTOR COMPLEX INHIBITOR” (THE TRUSTEES OF THE UNIVERSITY OF PENNSYLVANIA, priority 2009, published 2012)

System: murine osteoclast precursors
Assay: TRANCE (RANKL)-induced osteoclast formation in vitro, TRAP assay
Assay type: cell-based
Details: osteoclast precursors cultured 3 days with murine CSF-1 (30 ng/mL) and TRANCE (300 ng/mL); FIG. 1
Protocol: The effects of the compound of Formula II-A-1 on TRANCE-mediated osteoclastogenesis were evaluated against murine osteoclast precursors using a TRAP (tartrate resistant acid phosphatase) assay. The techniques comprising this method are described more fully in U.S. Pat. No. 6,673,771.
Osteoclast precursors were cultured in 96-well plates (1×10^5/mL, 200 μL/well) for 3 days in the presence of murine CSF-1 (30 ng/mL) and TRANCE (300 ng/mL) with or without the compounds of Formulae III-1 and II-A-1 at the indicated concentration. After 3 days, the cells were fixed and stained for tartrate-resistant acid phosphatase (TRAP). TRAP-positive multinucleated cells were counted as osteoclast-like multinucleated cells.

Compound: CC(=O)OCC12CCC(OC(C)=O)CC1(O)CC[C@@H]1[C@@H]2CCC2(C)C(C3=CC(=O)OC3)CCC12O (some centres unmarked) [II-A-1]
- inhibition of TRANCE induced osteoclast formation (TRAP-positive multinucleated cells): inhibited TRANCE induced osteoclast formation in vitro in a dose-dependent manner

Compound: CC12CC[C@H]3[C@@H](CCC4(O)CC(OC(=O)CCC(=O)O)CCC34COC(=O)CCC(=O)O)C1(O)CCC2C1=CC(=O)OC1 (some centres unmarked) [III-1]
- inhibition of TRANCE induced osteoclast formation (TRAP-positive multinucleated cells): inhibited TRANCE induced osteoclast formation in vitro in a dose-dependent manner
